From patent publication US6545009B1, “Retinoid-related receptor function regulating agent” (Takeda Chemical Industries, Ltd., priority 1998, dated 2003)

melting point	SMILES
225 to 227 °C	O=C(O)c1ccc(-c2nc(-c3ccccc3C(F)(F)F)cs2)cc1 [Example 60, 4-[4-(2-trifluoromethylphenyl)-2-thiazolyl]benzoic acid]
> 300 °C	O=C(O)c1ccc(-c2nc(-c3ccccn3)cs2)cc1 [Example 61, 4-[4-(2-pyridyl)-2-thiazolyl]benzoic acid]
233 to 234 °C	O=C(O)c1ccc(-c2nc(-c3cccc(OC(F)(F)F)c3)cs2)cc1 [Example 63, 4-[4-(3-trifluoromethoxylphenyl)-2-thiazolyl]benzoic acid]
273 to 274 °C	O=C(O)c1ccc(-c2nc(-c3c(F)c(F)c(F)c(F)c3F)cs2)cc1 [Example 65, 4-[4-(2,3,4,5,6-pentafluorophenyl)-2-thiazolyl]benzoic acid]
230 to 231 °C	O=C(O)c1cccc(-c2nc(-c3ccc(C(F)(F)F)cc3)cs2)c1 [Example 67, 3-[4-(4-trifluoromethylphenyl)-2-thiazolyl]benzoic acid]
229 to 230 °C	O=C(O)c1cccc(-c2nc(-c3cccc(C(F)(F)F)c3)cs2)c1 [Example 68, 3-[4-(3-trifluoromethylphenyl)-2-thiazolyl]benzoic acid]
255 to 256 °C	O=C(O)c1cccc(-c2nc(-c3ccc(F)cc3F)cs2)c1 [Example 69, 3-[4-(2,4-difluorophenyl)-2-thiazolyl]benzoic acid]
236 to 238 °C	COc1ccc(-c2csc(-c3cccc(C(=O)O)c3)n2)cc1 [Example 70, 3-[4-(4-methoxyphenyl)-2-thiazolyl]benzoic acid]
255 to 256 °C	O=C(O)c1cccc(-c2nc(-c3ccc(F)c(F)c3)cs2)c1 [Example 71, 3-[4-(3,4-difluorophenyl)-2-thiazolyl]benzoic acid]
114 to 115 °C	CCOC(=O)c1cccc(-c2nc(-c3ccc(C)c(C)c3)cs2)c1 [Example 74, ethyl 3-[4-(3,4-dimethylphenyl)-2-thiazolyl]benzoate]
206 to 207 °C	COC(=O)c1ccc(-c2nc(-c3ccc(Br)cc3)cs2)cc1 [Example 75, methyl 4-[4-(4-bromophenyl)-2-thiazolyl]benzoate]
147 to 148 °C	CCOC(=O)c1cccc(-c2nc(-c3ccc(C)c(C)c3)cs2)c1 [Example 76, ethyl 3-[4-(3,4-dimethylphenyl)-2-thiazolyl]-benzoate]
103 to 105 °C	COC(=O)c1ccc(-c2nc(-c3cc(C)oc3C)cs2)cc1 [Example 77, methyl 4-[4-(2,5-dimethyl-3-furyl)-2-thiazolyl]benzoate]
115 to 116 °C	CCOC(=O)c1cccc(-c2nc(-c3cc(C)sc3C)cs2)c1 [Example 78, ethyl 3-[4-(2,5-dimethyl-3-thienyl)-2-thiazolyl]benzoate]
109 to 110 °C	COC(=O)c1ccc(-c2nc(-c3cc(C)sc3C)cs2)cc1 [Example 79, methyl 4-[4-(2,5-dimethyl-3-thienyl)-2-thiazolyl]benzoate]
149 to 150 °C	COC(=O)c1ccc(-c2nc(-c3cc(Cl)sc3Cl)cs2)cc1 [Example 80, methyl 4-[4-(2,5-dichloro-3-thienyl)-2-thiazolyl]benzoate]
125 to 126 °C	CCOC(=O)c1cccc(-c2nc(-c3cc(Cl)sc3Cl)cs2)c1 [Example 81, ethyl 3-[4-(2,5-dichloro-3-thienyl)-2-thiazolyl]benzoate]
108 to 110 °C	CCOC(=O)c1cccc(-c2nc(-c3ccc(OCC)cc3)cs2)c1 [Example 82, ethyl 3-[4-(4-ethoxyphenyl)-2-thiazolyl]benzoate]
192 to 193 °C	CCOc1ccc(-c2csc(-c3cccc(C(=O)OC)c3)n2)cc1 [Example 83, methyl 3-[4-(4-ethoxyphenyl)-2-thiazolyl]benzoate]
96 to 97 °C	CCOC(=O)c1cccc(-c2nc(-c3ccc(C(C)(C)C)cc3)cs2)c1 [Example 84, ethyl 3-[4-(4-t-butylphenyl)-2-thiazolyl]benzoate]
154 to 155 °C	COC(=O)c1ccc(-c2nc(-c3ccc(C(C)(C)C)cc3)cs2)cc1 [Example 85, methyl 4-[4-(4-t-butylphenyl)-2-thiazolyl]benzoate]
91 to 92 °C	CCOC(=O)c1cccc(-c2nc(-c3ccc(C(C)C)cc3)cs2)c1 [Example 86, ethyl 3-[4-(4-isopropylphenyl)-2-thiazolyl]benzoate]
134 to 135 °C	COC(=O)c1ccc(-c2nc(-c3ccc(C(C)C)cc3)cs2)cc1 [Example 87, methyl 4-[4-(4-isopropylphenyl)-2-thiazolyl]benzoate]

melting point	SMILES
235 to 236 °C	Cc1ccc(-c2csc(-c3cccc(C(=O)O)c3)n2)cc1C [Example 88, 3-[4-(3,4-dimethylphenyl)-2-thiazolyl]benzoic acid]
> 300 °C	O=C(O)c1ccc(-c2nc(-c3ccc(Br)cc3)cs2)cc1 [Example 89, 4-[4-(4-bromophenyl)-2-thiazolyl]benzoic acid]
261 to 262 °C	Cc1ccc(-c2csc(-c3ccc(C(=O)O)cc3)n2)cc1C [Example 90, 4-[4-(3,4-dimethylphenyl)-2-thiazolyl]benzoic acid]
264 to 265 °C	Cc1cc(-c2csc(-c3ccc(C(=O)O)cc3)n2)c(C)o1 [Example 91, 4-[4-(2,5-dimethyl-3-furyl)-2-thiazolyl]benzoic acid]
155 to 156 °C	Cc1cc(-c2csc(-c3cccc(C(=O)O)c3)n2)c(C)s1 [Example 92, 3-[4-(2,5-dimethyl-3-thienyl)-2-thiazolyl]benzoic acid]
239 to 240 °C	Cc1cc(-c2csc(-c3ccc(C(=O)O)cc3)n2)c(C)s1 [Example 93, 4-[4-(2,5-dimethyl-3-thienyl)-2-thiazolyl]benzoic acid]
266 to 267 °C	O=C(O)c1ccc(-c2nc(-c3cc(Cl)sc3Cl)cs2)cc1 [Example 94, 4-[4-(2,5-dichloro-3-thienyl)-2-thiazolyl]benzoic acid]
250 to 251 °C	CC(C)(C)c1ccc(-c2csc(-c3cccc(C(=O)O)c3)n2)cc1 [Example 98, 3-[4-(4-t-butylphenyl)-2-thiazolyl]benzoic acid]
263 to 265 °C	CCCCc1ccc(-c2csc(-c3ccc(C(=O)O)cc3)n2)cc1 [Example 99, 4-[4-(4-butylphenyl)-2-thiazolyl]benzoic acid]
257 to 258 °C	CC(C)c1ccc(-c2csc(-c3ccc(C(=O)O)cc3)n2)cc1 [Example 101, 4-[4-(4-isopropylphenyl)-2-thiazolyl]benzoic acid]
72 to 73 °C	CCOC(=O)c1ccc(-c2csc(-c3ccccc3)n2)cc1 [Example 102, ethyl 4-(2-phenyl-4-thiazolyl]benzoate]
105 to 106 °C	CCOC(=O)c1ccc(-c2csc(-c3ccc(Cl)cc3)n2)cc1 [Example 103, ethyl 4-[2-(4-chlorophenyl)-4-thiazolyl)benzoate]
163 to 164 °C	CCOC(=O)c1ccc(-c2csc(-c3ccc(C(F)(F)F)cc3)n2)cc1 [Example 104, ethyl 4-[2-(4-trifluoromethylphenyl)-4-thiazolyl)benzoate]
247 to 248 °C	Br.CCOC(=O)c1ccc(-c2csc(-c3ccncc3)n2)cc1 [Example 105, ethyl 4-[2-(4-pyridyl)-4-thiazolyl)benzoate hydrobromide]
142 to 143 °C	CCOC(=O)c1ccc(-c2cnc(-c3ccc(C(F)(F)F)cc3)o2)cc1 [Example 107, ethyl 4-[2-(4-trifluoromethylphenyl)-5-oxazolyl]benzoate]
195 to 197 °C	CCOC(=O)c1ccc(-c2ncc(-c3ccc(Cl)cc3)o2)cc1 [Example 108, ethyl 4-[5-(4-chlorophenyl)-2-oxazolyl]benzoate]
167 to 168 °C	CCOC(=O)c1ccc(-c2ncc(-c3ccc(Cl)cc3)s2)cc1 [Example 112, ethyl 4-[5-(4-chlorophenyl)-2-thiazolyl]benzoate]
> 300 °C	O=C(O)c1ccc(-c2ncc(-c3ccc(Cl)cc3)s2)cc1 [Example 114, 4-[5-(4-chlorophenyl)-2-thiazolyl]benzoic acid]
245 to 248 °C	O=C(O)c1ccc(-c2csc(-c3ccccc3)n2)cc1 [Reference Example 9, 4-(2-phenyl-4-thiazolyl]benzoic acid]
284 to 285 °C	O=C(O)c1ccc(-c2csc(-c3ccc(Cl)cc3)n2)cc1 [compound 10, 4-[2-(4-chlorophenyl)-4-thiazolyl]benzoic acid]
265 to 266 °C	O=C(O)c1cccc(-c2nc(-c3ccc(Cl)cc3)cs2)c1 [compound 12, 3-[4-(4-chlorophenyl)-2-thiazolyl]benzoic acid]
268 to 270 °C	O=C(O)c1ccc(-c2cnc(-c3ccc(Cl)cc3)o2)cc1 [compound 13, 4-[2-(4-chlorophenyl)-5-oxazolyl]benzoic acid]
